Here are results for 36 compounds from BindingDB's records for doi:10.7270/Q2NZ862K (Nmmlsc, 2007).

The target of this assay is T1, fMet-Leu-Phe receptor (Homo sapiens, UniProt P21462).
T1 sequence (P21462 whole entry): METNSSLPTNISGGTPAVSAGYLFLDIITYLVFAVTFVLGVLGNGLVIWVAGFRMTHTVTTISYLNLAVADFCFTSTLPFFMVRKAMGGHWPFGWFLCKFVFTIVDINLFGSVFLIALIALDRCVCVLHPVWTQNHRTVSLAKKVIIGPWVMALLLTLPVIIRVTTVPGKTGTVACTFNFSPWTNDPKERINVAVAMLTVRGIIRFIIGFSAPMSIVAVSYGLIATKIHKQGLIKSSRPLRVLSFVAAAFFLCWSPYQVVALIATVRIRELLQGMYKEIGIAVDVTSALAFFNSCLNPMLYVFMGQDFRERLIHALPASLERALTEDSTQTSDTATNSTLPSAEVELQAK
The assay is described as follows: formyl peptide receptor binders – dose response (AID 519).
One may read the Ki as a dissociation constant, usually derived from enzyme kinetics or from competition with a known ligand. Read a high Ki as a looser hold on the target. In turn, `CCOc1ccc(C2C(C(=O)c3ccco3)C(=O)C(=O)N2CCCn2ccnc2)cc1` (stereo unspecified) [2-(4-ethoxyphenyl)-3-(furan-2-carbonyl)-4-hydroxy-1-(3-imidazol-1-ylpropyl)-2H-pyrrol-5-one] gave a Ki of 6.4 µM.
As for `Cc1nc(C)c(C(=O)C2C(=O)C(=O)N(CCCn3ccnc3)C2c2ccc(Cl)cc2)s1` (stereo unspecified) [2-(4-chlorophenyl)-3-(2,4-dimethyl-1,3-thiazole-5-carbonyl)-4-hydroxy-1-(3-imidazol-1-ylpropyl)-2H-pyrrol-5-one], the figure is more than 43.7 µM.
Turning to `Cc1ccsc1C1C2C(=O)CC(C)(C)CC2=Nc2ncnn21` (stereo unspecified) [6,6-dimethyl-9-(3-methyl-2-thienyl)-1,5,7,9-tetrahydro-[1,2,4]triazolo[5,1-b]quinazolin-8-one], the Ki was found to be 8.2 µM.
Turning to `CCOc1ccc(C2C(C(=O)c3ccco3)C(=O)C(=O)N2Cc2cccnc2)cc1` (stereo unspecified) [2-(4-ethoxyphenyl)-3-(furan-2-carbonyl)-4-hydroxy-1-(pyridin-3-ylmethyl)-2H-pyrrol-5-one], the Ki was 10 µM.
In the case of `COc1cc(C2C(C(=O)c3ccc(C)o3)C(=O)C(=O)N2CCc2ccccc2)ccc1O` (stereo unspecified) [2-(3-methoxy-4-oxidanyl-phenyl)-3-(5-methylfuran-2-yl)carbonyl-4-oxidanyl-1-(2-phenylethyl)-2H-pyrrol-5-one] it was 12.9 µM.
In the case of `COC(=O)Cc1n[nH]c2c1C(C1C=CCCC1)C(C#N)C(=N)O2` (stereo unspecified) [2-[6-amino-5-cyano-4-(1-cyclohex-2-enyl)-2,4-dihydropyrano[2,3-c]pyrazol-3-yl]acetic acid methyl ester] it was more than 43.7 µM.
As for `CCOc1cc(C2C(C(=O)c3ccc(C)o3)C(=O)C(=O)N2CCc2ccccc2)ccc1O` (stereo unspecified) [2-(3-ethoxy-4-hydroxyphenyl)-4-hydroxy-3-(5-methylfuran-2-carbonyl)-1-(2-phenylethyl)-2H-pyrrol-5-one], the figure is 19.9 µM; as for `COCCCN1C(=O)C(=O)C(C(=O)c2ccco2)C1c1cccc(Br)c1` (stereo unspecified) [2-(3-bromophenyl)-3-(furan-2-carbonyl)-4-hydroxy-1-(3-methoxypropyl)-2H-pyrrol-5-one], 20.4 µM; as for `COc1ccc(OC)c(C2C(C(=O)c3ccco3)C(=O)C(=O)N2CCCN2CCOCC2)c1` (stereo unspecified) [2-(2,5-dimethoxyphenyl)-3-(furan-2-carbonyl)-4-hydroxy-1-(3-morpholin-4-ylpropyl)-2H-pyrrol-5-one], 17.3 µM.
Compound `COc1ccc(C2C(C(=O)c3ccccc3)C(=O)C(=O)N2CC(C)O)c(OC)c1` (stereo unspecified) [(4Z)-5-(2,4-dimethoxyphenyl)-4-[hydroxy(phenyl)methylene]-1-(2-hydroxypropyl)pyrrolidine-2,3-quinone] showed a Ki of 25.3 µM.
In the case of `COCCN1C(=O)C(=O)C(C(=O)c2ccco2)C1c1cccc(Oc2ccccc2)c1` (stereo unspecified) [3-(furan-2-carbonyl)-4-hydroxy-1-(2-methoxyethyl)-2-(3-phenoxyphenyl)-2H-pyrrol-5-one] it was 36.7 µM.
In the case of `COc1cc(C2C(C(=O)c3cccs3)C(=O)C(=O)N2Cc2ccco2)cc(OC)c1OC` (stereo unspecified) [1-(2-furanylmethyl)-4-hydroxy-3-[oxo(thiophen-2-yl)methyl]-2-(3,4,5-trimethoxyphenyl)-2H-pyrrol-5-one] it was 17.7 µM.
`O=C1C(=O)N(Cc2ccco2)C(c2ccccc2)C1C(=O)c1cccs1` (stereo unspecified) [1-(2-furanylmethyl)-4-hydroxy-3-[oxo(thiophen-2-yl)methyl]-2-phenyl-2H-pyrrol-5-one] displayed a Ki of 23 µM.
With `COc1ccc(OC)c(C2C(C(=O)c3cccs3)C(=O)C(=O)N2c2cc(C)on2)c1` (stereo unspecified) [2-(2,5-dimethoxyphenyl)-1-(5-methyl-1,2-oxazol-3-yl)-4-oxidanyl-3-thiophen-2-ylcarbonyl-2H-pyrrol-5-one], the Ki is more than 43.7 µM.
In the case of `COc1cccc(C2C(C(=O)c3cc4ccccc4o3)C(=O)C(=O)N2c2cc(C)on2)c1OC` (stereo unspecified) [3-(1-benzofuran-2-carbonyl)-2-(2,3-dimethoxyphenyl)-4-hydroxy-1-(5-methyl-1,2-oxazol-3-yl)-2H-pyrrol-5-one], the Ki is more than 43.7 µM.
As for `Cc1cc(N2C(=O)C(=O)C(C(=O)c3ccc(F)cc3)C2c2cccc(Br)c2)no1` (stereo unspecified) [(4E)-5-(3-bromophenyl)-4-[(4-fluorophenyl)-hydroxy-methylene]-1-(5-methylisoxazol-3-yl)pyrrolidine-2,3-quinone], the figure is more than 43.7 µM.
As for `COc1cccc2cc(C(=O)C3C(=O)C(=O)N(Cc4ccco4)C3c3cccnc3)oc12` (stereo unspecified) [1-(2-furanylmethyl)-4-hydroxy-3-[(7-methoxy-2-benzofuranyl)-oxomethyl]-2-(3-pyridinyl)-2H-pyrrol-5-one], the figure is more than 43.7 µM; as for `CCOc1ccc(C(=O)C2C(=O)C(=O)N(CC3CCCO3)C2c2ccc(C)o2)cc1` (stereo unspecified) [(4Z)-4-[(4-ethoxyphenyl)-hydroxymethylidene]-5-(5-methyl-2-furanyl)-1-(2-oxolanylmethyl)pyrrolidine-2,3-dione], 13.8 µM; as for `COCCCN1C(=O)C(=O)C(C(=O)c2ccc(OC)cc2C)C1c1cccnc1` (stereo unspecified) [(4E)-4-[(4-methoxy-2-methyl-phenyl)-oxidanyl-methylidene]-1-(3-methoxypropyl)-5-pyridin-3-yl-pyrrolidine-2,3-dione], more than 43.7 µM.
In turn, `C=CCN1C(=O)C2(c3ccccc31)C(C(=O)c1ccc3c(c1)OCCO3)C(=O)C(=O)N2CCCOC` (stereo unspecified) [(4'E)-1-allyl-4'-[2,3-dihydro-1,4-benzodioxin-6-yl(hydroxy)methylene]-1'-(3-methoxypropyl)spiro[indoline-3,5'-pyrrolidine]-2,2',3'-trione] registered a Ki of more than 43.7 µM.
`C=CCOc1cccc(C2C(C(=O)c3ccco3)C(=O)C(=O)N2CCN2CCOCC2)c1` (stereo unspecified) [3-(furan-2-carbonyl)-4-hydroxy-1-(2-morpholin-4-ylethyl)-2-(3-prop-2-enoxyphenyl)-2H-pyrrol-5-one] gave a Ki of more than 43.7 µM.
For `COC(=O)c1[nH]c(C)c(C(=O)C2C(=O)C(=O)N(CCN3CCOCC3)C2c2cccs2)c1C` (stereo unspecified), the affinity, expressed as Ki, was 3.3 µM.
In the case of `O=C1C(=O)N(c2ncccn2)C(c2ccc(Cl)c(Cl)c2)C1C(=O)c1ccco1` (stereo unspecified) [2-(3,4-dichlorophenyl)-3-(furan-2-carbonyl)-4-hydroxy-1-pyrimidin-2-yl-2H-pyrrol-5-one], the inhibitory constant (Ki) was more than 43.7 µM.
In the case of `CCN(CC)c1ccc(C=NC(C#N)C(=N)C#N)cc1` (stereo unspecified) [SMR000023871] it was more than 43.7 µM; in that of `COc1ccc(C(=O)C2C(=O)C(=O)N(CCN3CCOCC3)C2c2ccc(C)cc2)cc1` (stereo unspecified) [(4Z)-4-[(4-methoxyphenyl)-oxidanyl-methylidene]-5-(4-methylphenyl)-1-(2-morpholin-4-ylethyl)pyrrolidine-2,3-dione], more than 43.7 µM; in that of `O=C1C(=O)N(CC2CCCO2)C(c2cccnc2)C1C(=O)c1ccco1` (stereo unspecified) [3-(furan-2-carbonyl)-4-hydroxy-1-(oxolan-2-ylmethyl)-2-pyridin-3-yl-2H-pyrrol-5-one], 35.9 µM.
Consider `O=C1C(=O)N(Cc2ccccc2)C(c2ccco2)C1C(=O)c1ccco1` (stereo unspecified) [1-Benzyl-4-(furan-2-carbonyl)-5-furan-2-yl-3-hydroxy-1,5-dihydro-pyrrol-2-one], for which the Ki came out at 8.1 µM.
As for `COc1cc(C2C(C(=O)c3ccc4c(c3)CC(C)O4)C(=O)C(=O)N2CCCn2ccnc2)ccc1O` (stereo unspecified) [(4E)-1-(3-imidazol-1-ylpropyl)-5-(3-methoxy-4-oxidanyl-phenyl)-4-[(2-methyl-2,3-dihydro-1-benzofuran-5-yl)-oxidanyl-methylidene]pyrrolidine-2,3-dione], the figure is 37.6 µM.
As for `Cc1ccc(C2C(C(=O)c3ccc(Br)cc3)C(=O)C(=O)N2Cc2ccco2)o1` (stereo unspecified) [(4Z)-4-[(4-bromophenyl)-hydroxy-methylene]-1-(2-furfuryl)-5-(5-methyl-2-furyl)pyrrolidine-2,3-quinone], the figure is more than 43.7 µM.
As for `Cc1ccc(C)c(C(=O)C2C(=O)C(=O)N(CCCn3ccnc3)C2c2ccncc2)c1` (stereo unspecified) [(4E)-4-[(2,5-dimethylphenyl)-hydroxy-methylene]-1-(3-imidazol-1-ylpropyl)-5-(4-pyridyl)pyrrolidine-2,3-quinone], the figure is more than 43.7 µM; as for `COc1ccc(C2C(C(=O)c3ccco3)C(=O)C(=O)N2Cc2cccnc2)cc1OC` (stereo unspecified) [2-(3,4-dimethoxyphenyl)-3-(furan-2-carbonyl)-4-hydroxy-1-(pyridin-3-ylmethyl)-2H-pyrrol-5-one], more than 43.7 µM; as for `COC(=O)c1[nH]c(C)c(C(=O)C2C(=O)C(=O)N(CCCN3CCOCC3)C2c2ccccn2)c1C` (stereo unspecified) [methyl 4-{[4-hydroxy-1-[3-(4-morpholinyl)propyl]-5-oxo-2-(2-pyridinyl)-2,5-dihydro-1H-pyrrol-3-yl]carbonyl}-3,5-dimethyl-1H-pyrrole-2-carboxylate], 6.3 µM.
The compound `COCCCN1C(=O)C(=O)C(C(=O)c2ccc3c(c2)CC(C)O3)C1c1cccnc1` (stereo unspecified) [(4E)-1-(3-methoxypropyl)-4-[(2-methyl-2,3-dihydro-1-benzofuran-5-yl)-oxidanyl-methylidene]-5-pyridin-3-yl-pyrrolidine-2,3-dione] gave a Ki of more than 43.7 µM.
As for `COc1ccc(OC)c(C2C(C(=O)c3cc4ccccc4o3)C(=O)C(=O)N2c2cc(C)on2)c1` (stereo unspecified) [3-(1-benzofuran-2-carbonyl)-2-(2,5-dimethoxyphenyl)-4-hydroxy-1-(5-methyl-1,2-oxazol-3-yl)-2H-pyrrol-5-one], the figure is 23.9 µM; as for `O=C1C(=O)N(Cc2ccccc2)C(c2cccnc2)C1C(=O)c1ccco1` (stereo unspecified) [1-Benzyl-4-(furan-2-carbonyl)-3-hydroxy-5-pyridin-3-yl-1,5-dihydro-pyrrol-2-one], 20 µM.
As for `O=C1C(=O)N(CCN2CCOCC2)C(c2ccccc2)C1C(=O)c1cccs1` (stereo unspecified) [1-(2-morpholin-4-ylethyl)-4-oxidanyl-2-phenyl-3-thiophen-2-ylcarbonyl-2H-pyrrol-5-one], the inhibition constant (Ki) is more than 43.7 µM.
